According to US20250042918A1, “COMPOUNDS” (Fundación Del Sector Públlco Estatal Centro Nacional De …, priority 2021, published 2025):
pIC50: −log10 of the molar value.

Assays:
Type in all cases: cell-based
[1] = test system: BT-474; assay: In vitro potency against breast cancer cell lines (CellTiter Glo); settings: Homo sapiens, BT-474, 72 h; read-out: absolute IC50 BT-474
Description: (§1) To prepare the complete medium FBS and appropriate additives were added according to the information sheet provided by the vendor and mixed gently. The cell name and complete medium and passage number marked on the flask were checked, and the culture medium removed and discarded using a vacuum pump. […] 3.0 ml of Trypsin-EDTA solution was added to the flask and the cells observed under an inverted microscope until cell layer is dispersed. 8.0 ml of complete growth medium was added and the cells aspirated by gently pipetting. The cell suspension was transferred to a centrifuge tube and centrifuged at 800-1000 rpm for 3-5 minutes. The supernatant was discarded using a vacuum pump, and an appropriate volume of complete medium added. The cell pellet was suspended by gently pipetting, and the cell numbers counted with Vi-cell XR and the cells adjusted to appropriate density. 100 μL of cell suspension to 96-well opaque-walled clear bottom plates was added according to the planned plate layout and the plates placed in the CO2 incubator overnight.
(§2) c. […] Meanwhile the day 0 plate was measured by Cell TiterGlo as listed below.
(§3) d. Cells were incubated with the compounds for 72 h at 5% CO2, 37° C.
(§4) The CellTiter-Glo buffer was thawed and equilibrated to room temperature prior to use. The lyophilized CellTiter-Glo substrate was equilibrated to room temperature prior to use. The appropriate volume of CellTiter-Glo buffer was transferred into the amber bottle containing CellTiter-Glo substrate to reconstitute the lyophilized enzyme/substrate mixture, thereby forming the CellTiter-Glo reagent. Mixing was carried out by gently vortexing, swirling or by inverting the contents to obtain a homogeneous solution, the CellTiter-Glo substrate going into solution easily in less than one minute.
(§5) The plate and its contents were equilibrated to room temperature for approximately 30 minutes, after which 100 μL of CellTiter-Glo reagent was added to the assay plate by Multidrop Combi instrument and the contents mixed for 10 minutes on an orbital shaker to induce cell lysis. The plate was allowed to incubate at room temperature for 10 minutes to stabilize luminescent signal and the clear bottom pasted with white back seal and the luminescence recorded with Enspire with the settings: Luminescence, measurement time 0.1 ms.

[2] = test system: HCC1143; assay: as above; settings: Homo sapiens, HCC1143, 72 h; read-out: absolute IC50 HCC1143
Description: as §1, §2, §3, §4, §5

[3] = test system: HCC1954; assay: as above; settings: Homo sapiens, HCC1954, 72 h; read-out: absolute IC50 HCC1954
Description: as §1, §2, §3, §4, §5

[4] = test system: HCC38; assay: as above; settings: Homo sapiens, HCC38, 72 h; read-out: absolute IC50 HCC38
Description: as §1, §2, §3, §4, §5

[5] = test system: MDA-MB-361; assay: as above; settings: Homo sapiens, MDA-MB-361, 72 h; read-out: absolute IC50 MDA-MB-361
Description: as §1, §2, §3, §4, §5

[6] = test system: T-47D; assay: as above; settings: Homo sapiens, T47D, 72 h; read-out: absolute IC50 T-47D
Description: as §1, §2, §3, §4, §5

[7] = test system: HL-60; assay: In vitro potency against leukemia cell lines (CellTiter Glo); settings: Homo sapiens, 72 hours, read-out: absolute IC50 HL-60
Description: as §1, §2, §3, §5
(§6) In all cases, the incubation time was 72 hours and the cell lines were grown as a suspension. The seeding density was […] in a 96 well plate.

[8] = test system: Jeko-1; assay: as above; settings: Homo sapiens, 72 hours, read-out: absolute IC50 JeKo-1
Description: as §1, §2, §3, §5, §6

[9] = test system: KG-1; assay: as above; settings: Homo sapiens, 72 hours, read-out: absolute IC50 KG-1
Description: as §1, §2, §3, §5, §6

[10] = test system: Kasumi-3; assay: as above; settings: 72 hours, read-out: absolute IC50 Kasumi-3
Description: as §1, §2, §3, §5, §6

[11] = test system: MV-4-11; assay: as above; settings: Homo sapiens, MV4-11; 72 hours; read-out: absolute IC50 MV-4-11
Description: as §1, §2, §3, §5, §6

[12] = test system: Molm-13; assay: as above; settings: Homo sapiens, 72 hours, read-out: absolute IC50 Molm-13
Description: as §1, §2, §3, §5, §6

[13] = test system: OCI-M1; assay: as above; settings: 72 hours, read-out: absolute IC50 OCI-M1
Description: as §1, §2, §3, §5, §6

Cn1c(=O)n(-c2ccc(C(C)(C)C#N)cc2)c2c3cc(-c4cnc5ccccc5c4)ccc3ncc21 [Dactolisib, dactolisib]
pIC50 [1]: 6.94 | pIC50 [2]: 6.84 | pIC50 [3]: 7.84 | pIC50 [4]: 7.18 | pIC50 [5]: 7.52 | pIC50 [6]: 7.25 | pIC50 [7]: 6.37 | pIC50 [8]: 7.17 | pIC50 [9]: 7.05 | pIC50 [10]: 6.98 | pIC50 [11]: 7.44 | pIC50 [12]: 7.35 | pIC50 [13]: 6.90
